# Experimental data: patent publication US7608726B2, “Substituted indolepyridinium as anti-infective compounds” (Tibotec Pharmaceuticals Ltd., priority 2002, dated 2009)
# Experiments:
# HIV mutant A (Y181C) = experiment: Antiviral cellular assay, mutant HIV strain A; format: cell-based; conditions: EC50 mutant/EC50 wild type, rounded to nearest integer
# Procedure: (§1) HIV- or mock-infected MT4 cells were incubated for five days in the presence of various concentrations of the inhibitor. At the end of the incubation period, the replicating virus in the control cultures has killed all HIV-infected cells in the absence of any inhibitor. Cell viability was determined by measuring the concentration of MTT, a yellow, water soluble tetrazolium dye that is converted to a purple, water insoluble formazan in the mitochondria of living cells only. Upon solubilization of the resulting formazan crystals with isopropanol, the absorbance of the solution was monitored at 540 nm. The values correlate directly to the number of living cells remaining in the culture at the completion of the five day incubation. The inhibitory activity of the compound was monitored on the virus-infected cells and was expressed as EC50 and EC90. These values represent the amount of the compound required to protect 50% and 90%, respectively, of the cells from the cytopathogenic effect of the virus. […] Wherever results are reported as e.g. pEC50 or pCC50 values, the result is expressed as the negative logarithm of the result expressed as EC50 or CC50 respectively. […]
# (§2) Row WT: pEC50 against wild type HIV-LAI strain. The toxicity (Tox) is expressed as the pCC50 value as determined with mock transfected cells. ND means not determined.
# HIV mutant B (K103N) = experiment: Antiviral cellular assay, mutant HIV strain B; format: cell-based; conditions: EC50 mutant/EC50 wild type, rounded to nearest integer
# Procedure: as §1, §2
# [1] = system: HIV mutant C (L100I; K103N); experiment: Antiviral cellular assay, mutant HIV strain C; format: cell-based; conditions: EC50 mutant/EC50 wild type, rounded to nearest integer
# Procedure: as §1, §2
# [2] = system: HIV mutant D (L100I; K103N); experiment: Antiviral cellular assay, mutant HIV strain D; format: cell-based; conditions: EC50 mutant/EC50 wild type, rounded to nearest integer
# Procedure: as §1, §2
# HIV mutant E (F227C) = experiment: Antiviral cellular assay, mutant HIV strain E; format: cell-based; conditions: EC50 mutant/EC50 wild type, rounded to nearest integer
# Procedure: as §1, §2
# HIV mutant F (Y188L) = experiment: Antiviral cellular assay, mutant HIV strain F; format: cell-based; conditions: EC50 mutant/EC50 wild type, rounded to nearest integer
# Procedure: as §1, §2
# [3] = system: HIV mutant G (V106A, F227L); experiment: Antiviral cellular assay, mutant HIV strain G; format: cell-based; conditions: EC50 mutant/EC50 wild type, rounded to nearest integer
# Procedure: as §1, §2
# [4] = system: HIV mutant H (K103N, Y181C); experiment: Antiviral cellular assay, mutant HIV strain H; format: cell-based; conditions: EC50 mutant/EC50 wild type, rounded to nearest integer
# Procedure: as §1, §2
# [5] = system: HIV mutant I (K101E, K103N); experiment: Antiviral cellular assay, mutant HIV strain I; format: cell-based; conditions: EC50 mutant/EC50 wild type, rounded to nearest integer
# Procedure: as §1, §2
# [6] = system: HIV mutant J (131L, L100I, K103N, E138G, Y181C, L214F); experiment: Antiviral cellular assay, mutant HIV strain J; format: cell-based; conditions: EC50 mutant/EC50 wild type, rounded to nearest integer
# Procedure: as §1, §2
# [7] = system: HIV mutant K (multiple RT mutations, Table 1); experiment: Antiviral cellular assay, mutant HIV strain K; format: cell-based; conditions: EC50 mutant/EC50 wild type, rounded to nearest integer
# Procedure: as §1, §2
# HIV-2 = experiment: Antiviral cellular assay, HIV-2; format: cell-based; conditions: Human immunodeficiency virus 2; read-out: pEC50 towards HIV-2 (converted)
# Procedure: HIV- or mock-infected MT4 cells were incubated for five days in the presence of various concentrations of the inhibitor. At the end of the incubation period, the replicating virus in the control cultures has killed all HIV-infected cells in the absence of any inhibitor. Cell viability was determined by measuring the concentration of MTT, a yellow, water soluble tetrazolium dye that is converted to a purple, water insoluble formazan in the mitochondria of living cells only. Upon solubilization of the resulting formazan crystals with isopropanol, the absorbance of the solution was monitored at 540 nm. The values correlate directly to the number of living cells remaining in the culture at the completion of the five day incubation. The inhibitory activity of the compound was monitored on the virus-infected cells and was expressed as EC50 and EC90. These values represent the amount of the compound required to protect 50% and 90%, respectively, of the cells from the cytopathogenic effect of the virus. […] Wherever results are reported as e.g. pEC50 or pCC50 values, the result is expressed as the negative logarithm of the result expressed as EC50 or CC50 respectively.
# as §2
# [8] = system: SIV (simian immunodeficiency virus); experiment: Antiviral cellular assay, SIV; format: cell-based; conditions: read-out: pEC50 towards SIV (converted)
# Mycobacterium b. = experiment: Specificity versus non-viral pathogens: Mycobacterium b.; format: cell-based
# [9] = system: HIV-1 strain LAI in MT4 cells; experiment: Time of addition experiment (p24 ELISA); format: cell-based; conditions: 50 μM, MT4 cells infected with HIV-1 LAI
# Procedure: A time of addition experiment was performed to determine the mechanism of action of the compounds of the present invention. In the time of addition experiment, compounds are added to cells that were infected with HIV, at time zero (Zero hours). The compounds are subsequently added at different points in time. The time point until which a compound can be added to prevent virus replication, provides an indication of the mechanism of action of the compound.
# In the present experiment, MT4 cells were infected with HIV-1 strain LAI at time zero. In different experiments, compounds were subsequently added at the points in time indicated in the X-axis of FIG. 1 (in hours). The compounds were added at the following end concentrations during incubation: DS5000, 1 μM; efavirenz (EFV), 1 μM; saquinavir (SQV), 1 μM; Reference 1, 10 μM (Reference 1 is an integrase inhibitor selected from WO 99/62520 and is present in CAS database: 251963-93-6); Compound 2, 50 μM; Control: normalized virus production. The virus production was determined using p24 monitoring using a kit according to the manufacturers instructions (p24 ELISA kit, catalog reference NEK-050, Perkin Elmer).
# [10] = target: T1, HIV reverse transcriptase (Human immunodeficiency virus type 1 group M subtype B, UniProt P04585); experiment: In vitro inhibition of HIV reverse transcriptase (kit TRK 1022); format: biochemical; conditions: enzyme assay, 4 hours at 37° C.
# T1 construct: 5 μl HIV RT enzyme solution; purchased Amersham Life Sciences TRK 1022
# Procedure: The assay was run using kit TRK 1022 (Amersham Life Sciences) according to the manufacturer's instructions with slight modifications. Compounds were diluted in steps of ¼ in 100% DMSO and subsequently transferred to Medium A (1/50 dilution; medium A: RPMI 1640+10% FetalClone II+Gentamycin 20 mg/L). 25 μl of compound (in 2% DMSO in Medium A) or 25 μl of 2% DMSO in medium A was added to wells. To each well was added 25.5 μl master mix (master mix: 5 μl primer/template beads, 10 μl assay buffer, 0.5 μl tracer (3H-TTP), 5 μl HIV RT enzyme solution at a final enzyme activity of 15 mU per 50 μl reaction, 5 μl medium A). The plates were sealed, marked as radioactive and incubated during 4 hours at 37° C. Subsequently, 100 μl stop solution was added to each well (except R1). The radioactivity was counted in a TopCount.
# [11] = Microsomal metabolization, dog liver microsomes; format: in vitro ADME; conditions: 10 μM, LC-MS
# [12] = Microsomal metabolization, human liver microsomes; format: in vitro ADME; conditions: for hepatic first pass metabolization (microsomal): liver microsomal fractions
# Procedure: Aliquots of human liver microsomal fractions (prepared by centrifugation at 12000 g^−1) were transferred into 10 ml glass tubes that are immersed in ice. Subsequently, test compound was added to yield a final concentration of 10 μM test compound. After adding 500 μl of a co-factor solution (cofactor solution: 1 mg/ml glucose-6-phosphate, 1 mg/ml MgCl2.6H2O, 0.5 units/ml glucose-6-phosphate dehydrogenase in 0.5 M phohsphate buffer. pH 7.4), homogenisation buffer (homogenisation buffer: 1,15% KCl in 0.05 M phosphate buffer, pH 7.4) was added to give a final volume of 1 ml. The incubations, 30 or 120 minutes at 37° C., were initiated by adding 10 μl of a solution of nicontinamide adenine dinucleotide phosphate (1.25 mg/ml) in homogenisation buffer. After a preincubation during 5 minutes at 37° C., the tubes were continuously shaken at 100 oscillations/minute in a water bath. The reactions were terminated by addition of an equal volume of DMSO. Blank incubations containing boiled microsomal fractions were incubated under the same conditions as the drug incubations. The degree of metabolism was determined by direct measurement of the residual parent compound in the reaction mixture using LC-MS. In parallel, the residual anti-HIV activity in the reaction mixture was detected using a colorimetric anti-HIV assay as described in Pauwels et al. J. Virol. Methods 1988 (20) 309-321. The residual activity is defined as the percent difference in EC50 between the drug incubations and the blank incubations.
# The amount of compound was determined using LC-MS at the time points indicated between brackets. The results are indicated as a % vis-à-vis the amount determined at the start of the experiment (time=0; normalized to 100%).
# wild type HIV-LAI strain = experiment: Antiviral cellular assay (MT4 cells, MTT), wild type HIV-1 strain LAI; format: cell-based; conditions: Human immunodeficiency virus 1, MT4; read-out: EC50, inhibition of wild-type HIV-LAI strain
# Procedure: The compounds of the present invention were examined for anti-viral activity in a cellular assay. […] The cellular assay was performed according to the following procedure.
# HIV- or mock-infected MT4 cells were incubated for five days in the presence of various concentrations of the inhibitor. At the end of the incubation period, the replicating virus in the control cultures has killed all HIV-infected cells in the absence of any inhibitor. Cell viability was determined by measuring the concentration of MTT, a yellow, water soluble tetrazolium dye that is converted to a purple, water insoluble formazan in the mitochondria of living cells only. Upon solubilization of the resulting formazan crystals with isopropanol, the absorbance of the solution was monitored at 540 nm. The values correlate directly to the number of living cells remaining in the culture at the completion of the five day incubation. The inhibitory activity of the compound was monitored on the virus-infected cells and was expressed as EC50 and EC90. These values represent the amount of the compound required to protect 50% and 90%, respectively, of the cells from the cytopathogenic effect of the virus. The toxicity of the compound was measured on the mock-infected cells and was expressed as CC50, which represents the concentration of compound required to inhibit the growth of the cells by 50%. The selectivity index (SI) (ratio CC50/EC50) is an indication of the selectivity of the anti-HIV activity of the inhibitor. Wherever results are reported as e.g. pEC50 or pCC50 values, the result is expressed as the negative logarithm of the result expressed as EC50 or CC50 respectively.
# As a measure of the broad spectrum activity of the present compounds, the EC50 was determined. […] The fold resistance rounded to the nearest integer is mentioned between brackets.
# as §2
SMILES,fold resistance mutant A (between brackets) (HIV mutant A (Y181C)),fold resistance mutant B (between brackets) (HIV mutant B (K103N)),fold resistance mutant C (between brackets) [1],fold resistance mutant D (between brackets) [2],fold resistance mutant E (between brackets) (HIV mutant E (F227C)),fold resistance mutant F (between brackets) (HIV mutant F (Y188L)),fold resistance mutant G (between brackets) [3],fold resistance mutant H (between brackets) [4],fold resistance mutant I (between brackets) [5],fold resistance mutant J (between brackets) [6],fold resistance mutant K (between brackets) [7],EC50 (HIV-2),EC50 [8],hepatic first pass metabolization (microsomal) [12],EC50 (wild type HIV-LAI strain),other results
"N#Cc1cc2[nH]c3ccccc3c2n(-c2ccc([N+](=O)[O-])cc2)c1=O [Compound 1, 1-(4-nitrophenyl)-2-oxo-2,5-dihydro-1H-pyrido[3,2-b]indole-3-carbonitrile]",8,4,8,3,6,4,2,5,3,5,1,6310 nM,7940 nM,–,–,–
"Cn1c2ccccc2c2c1cc(C#N)c(=O)n2-c1ccc([N+](=O)[O-])cc1 [Compound 2, 5-methyl-1-(4-nitro-phenyl)-2-oxo-2,5-dihydro-1H-pyrido[3,2-b]indole-3-carbonitrile]",4,1,3,2,3,2,3,5,3,5,4,251 nM,316 nM,little or no hepatic first pass metabolization,–,"EC50 (Mycobacterium b.): > 32000 nM; time of addition: effect on virus production / mechanism [9]: delayed virus production using a mechanism related to reverse transcriptase; in vitro inhibition of HIV reverse transcriptase [10]: inhibits HIV reverse transcriptase in vitro; DLM (0 min) amount of compound ([11]; 0 min, normalized to 100% at time 0): 100%; DLM (30 min) amount of compound ([11]; 30 min, % of amount at time 0): 91%; DLM (120 min) amount of compound ([11]; 120 min, % of amount at time 0): 108%; HLM (0 min) amount of compound ([12]; 10 μM, 0 min, LC-MS, normalized to 100% at time 0): 100%; HLM (30 min) amount of compound ([12]; 10 μM, 30 min, LC-MS, % of amount at time 0): 98%; HLM (120 min) amount of compound ([12]; 10 μM, 120 min, LC-MS, % of amount at time 0): 128%"
"N#Cc1cc2c(c3ccccc3n2CCN2CCCC2)n(-c2ccc([N+](=O)[O-])cc2)c1=O [Compound 13, 1-(4-Nitro-phenyl)-2-oxo-5-(2-pyrrolidin-1-yl-ethyl)-2,5-dihydro-1H-pyrido[3,2-b]-indole-3-carbonitrile]",–,–,–,–,–,–,–,–,–,–,–,–,–,little or no hepatic first pass metabolization,< 1000 nM,–
"Cn1c2ccccc2c2c1cc(-c1noc(C(F)(F)F)n1)c(=O)n2-c1ccc([N+](=O)[O-])cc1 [Compound 72, 5-Methyl-1-(4-nitro-phenyl)-3-(5-trifluoromethyl-[1,2,4]oxadiazol-3-yl)-1,5-dihydropyrido[3,2-b]indol-2-one]",–,–,–,–,–,–,–,–,–,–,–,–,–,–,< 1000 nM,–
Cn1c2ccccc2c2c1cc(C(N)=O)c(=O)n2-c1ccc([N+](=O)[O-])cc1 [Compound 76],–,–,–,–,–,–,–,–,–,–,–,–,–,–,1000 to 32000 nM,–
